Entries after “also recorded” stand apart in the source; their conditions may differ. Square brackets hold non-standard residues; d marks the D form. Primed or numbered codes have the meaning given here. Ends that are not written are not given here. fluorescein″ = fluorescein label on the N-terminus; fluorescein = N-terminal fluorescein label; pS = N[C@@H](COP(=O)(O)O)C(=O)O
Experiments:
human 14-3-3γ = molecular target: T1, human 14-3-3γ (Homo sapiens, UniProt P61981); experiment: Fluorescence polarization (FP) direct binding assay; conditions: fluorescein-labeled peptide 1 nM; for Kd: 20 mM MOPS pH 7, 150 mM NaCl, 0.005% CHAPS, at least three independent measurements, read-out: Binding affinity (KD) toward 14-3-3 isoform γ; for Binding to 14-3-3γ, in words: dilution series of 14-3-3γ (at least 5 μM down to pM), FP buffer pH 7
T1 construct: MBP (cleaved yes); made in house; host or cells: E. coli BL21DE3
T1 sequence (P61981 1-247): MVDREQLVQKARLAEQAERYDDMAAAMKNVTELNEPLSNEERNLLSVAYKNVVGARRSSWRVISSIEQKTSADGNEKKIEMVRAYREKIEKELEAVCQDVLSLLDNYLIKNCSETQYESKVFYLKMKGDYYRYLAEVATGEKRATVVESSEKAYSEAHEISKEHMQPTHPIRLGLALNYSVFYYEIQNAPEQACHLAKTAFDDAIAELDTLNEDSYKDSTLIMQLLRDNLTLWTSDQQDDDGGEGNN
Method: (§1) Human MBP-tagged 14-3-3 isoforms were expressed from pMAL2CX plasmids [[Kilisch et al. (2016)], [Yuan et al. (2003)]] in E. coli BL21DE3 cells. After induction with […] isopropyl-β-D-thiogalactoside, the protein was expressed for 4 h at room temperature. Cells were lysed in MBP-lysis buffer [50 mM Tris–HCl pH 7.5, 150 mM NaCl, 5 mM MgCl2, 1 mM PMSF, 1× cOmplete Protease Inhibitor EDTA-free (Roche)] using a French Pressure cell (FRENCH Press, Thermo, United States). Following centrifugation at 42,000 × g and 4°C for 30 min, the supernatant was transferred to a Maltose-agarose column (1.5 ml bed volume; New England Biolabs GmbH, Germany). Captured proteins were washed six times with 10 ml wash buffer (50 mM Tris–HCl pH 7.5, 150 mM NaCl, 5 mM MgCl2) prior to elution using wash buffer including 15 mM D-maltose. To remove the MBP tag, fusion proteins were incubated with Factor Xa (New England Biolabs GmbH, Germany), at a final concentration of 0.4 μg per 1 mg fusion protein for 24 h at RT following another 72 h at 4°C. Anion exchange chromatography was finally applied to separate residual MBP using a buffer gradient from 20 mM Tris pH 8 to 20 mM Tris pH 8 with 1 M NaCl. For this a RESOURCE Q column (GE Healthcare, United Kingdom) was utilized, employing an ÄKTApurifier (GE Healthcare, United Kingdom) or an NGC Quest Chromatography System (Bio-Rad Laboratories GmbH, Germany).
(§2) FP was used to determine binding affinities of different phosphorylated and non-phosphorylated peptides derived from LRRK2 sequences (Peps4LS GmbH, Germany) toward human 14-3-3 isoforms. Direct binding assays were performed and evaluated as previously described ([Muda et al., 2014]; [Manschwetus et al., 2019]). Briefly, both dilution series of 14-3-3 isoforms ranging from final concentrations of at least 5 μM down to picomolar concentrations and dilutions of the respective fluorescein-labeled peptide (final conc. 1 nM) were prepared in FP buffer (20 mM MOPS pH 7, 150 mM NaCl, 0.005% CHAPS). Subsequently, samples were mixed in 384-well microtiter plates as duplicates (BRAND plates, pureGrade, black, BRAND GmbH & Co. KG, Germany) in a 1:1 ratio and measured using a CLARIOstar plate reader (BMG LABTECH, Germany). Two protein preparations were utilized for at least two independent replications for all measurements while high affinity binding peptides were particularly measured with a minimum of three independent replications for statistical evaluation. Data was analyzed with GraphPad Prism 6.0 (GraphPad Software, San Diego, CA, United States) by plotting obtained FP signals (mPol) against the logarithmic 14-3-3 protein concentrations. Data points represent means ± standard error of mean (SEM) of duplicates. “Ctrl.” indicates the FP signal of fluorescein-labeled peptides without 14-3-3 protein. Sigmoidal dose-response fitting was performed to define KD-values.

[1] = tested on: all seven human 14-3-3 isoforms; experiment: Fluorescence polarization (FP) direct binding assay, statements over all isoforms; conditions: for Binding to the human 14-3-3 isoforms, in words: FP direct binding, all seven isoforms, fluorescein-labeled peptide 1 nM, FP buffer pH 7
Method: as §1, §2

R1441C/pS1444 = molecular target: T2, R1441C/pS1444 (R1441C (stands in the printed letters)); experiment: fluorescence polarisation; direct binding; dilution series of 14-3-3 isoform (at least 5 μM down to picomolar) mixed with 1 nM fluorescein-labelled peptide; 20 mM MOPS pH 7, 150 mM NaCl, 0.005% CHAPS; 384-well plates; conditions: both partners purified
T2 construct: LRRK2-derived peptide of the Roc domain with the familial PD mutation R1441C, phosphorylated at S1444; source: synthetic peptide (Peps4LS GmbH)
T2 peptide: fluorescein-LFNIKACAS[pS]SPVILVGT

pS1444 = experiment: as above

## CC[C@H](C)[C@H](NC(=O)[C@@H]1CCCN1C(=O)CNC(=O)[C@H](CC(C)C)NC(=O)[C@H](COP(=O)(O)O)NC(=O)[C@H](CC(N)=O)NC(=O)[C@H](CO)NC(=O)[C@H](Cc1c[nH]cn1)NC(=O)[C@H](CCCNC(=N)N)NC(=O)[C@H](CCCNC(=N)N)NC(=O)[C@H](CC(C)C)NC(=O)[C@H](CC(N)=O)NC(=O)[C@@H]1CCCN1C(=O)[C@H](CO)NC(=O)[C@H](CS)NC(=O)[C@@H](N)CCCNC(=N)N)C(=O)N[C@@H](Cc1ccccc1)C(=O)N[C@@H](CC(=O)O)C(=O)N[C@@H](Cc1c[nH]cn1)C(=O)O [Q930R/pS935]
Human 14-3-3γ
  Kd: 11.1 ± 10.7 nM

## CC[C@H](C)[C@H](NC(=O)[C@H](COP(=O)(O)O)NC(=O)[C@H](CC(N)=O)NC(=O)[C@H](CO)NC(=O)[C@H](CCCCN)NC(=O)[C@@H](N)CCCCN)C(=O)N[C@@H](CO)C(=O)N[C@H](C(=O)NCC(=O)N[C@@H](CCC(=O)O)C(=O)N[C@@H](Cc1ccccc1)C(=O)N[C@@H](Cc1ccc(O)cc1)C(=O)N[C@@H](CCCNC(=N)N)C(=O)N[C@@H](CC(=O)O)C(=O)N[C@@H](C)C(=O)N[C@H](C(=O)N[C@@H](CC(C)C)C(=O)N[C@@H](CCC(N)=O)C(=O)N[C@@H](CCCNC(=N)N)C(=O)N[C@@H](CS)C(=O)N[C@@H](CO)C(=O)N1CCC[C@H]1C(=O)N[C@@H](CC(N)=O)C(=O)N[C@@H](CC(C)C)C(=O)N[C@@H](CCC(N)=O)C(=O)N[C@@H](CCCNC(=N)N)C(=O)N[C@@H](Cc1c[nH]cn1)C(=O)N[C@@H](CO)C(=O)N[C@@H](CC(N)=O)C(=O)N[C@@H](COP(=O)(O)O)C(=O)N[C@@H](CC(C)C)C(=O)NCC(=O)N1CCC[C@H]1C(=O)N[C@H](C(=O)N[C@@H](Cc1ccccc1)C(=O)O)[C@@H](C)CC)C(C)C)C(C)C [pS910/pS935]
Human 14-3-3γ
  Kd: 3.2 ± 0.5 nM

## KKSN SISVGEFYRDAVLQRCSPNLQRHSNSLGPIF ({fluorescein″}-KKSNSISVGEFYRDAVLQRCSPNLQRHSNSLGPIF) [S910/S935, fluorescein-labeled non-phosphorylated LRRK2-derived 35-mer encompassing S910 and S935]
Human 14-3-3γ
  Binding to 14-3-3γ, in words: did not bind

## KKSNSISVGEFYRDAVLQRCSPNLQRHSNpSLGPIF [S910/pS935, fluorescein-labeled LRRK2-derived 35-mer singly phosphorylated at S935]
[1]
  Binding to the human 14-3-3 isoforms, in words: no isoform specificity could be distinguished
Human 14-3-3γ
  Binding to 14-3-3γ, in words: only weak interactions

## KKSNpSISVGEFYRDAVLQRCSPNLQRHSNSLGPIF [pS910/S935, fluorescein-labeled LRRK2-derived 35-mer singly phosphorylated at S910]
[1]
  Binding to the human 14-3-3 isoforms, in words: no isoform specificity could be distinguished
Human 14-3-3γ
  Binding to 14-3-3γ, in words: only weak interactions

## LFNIKACASSSPVILVGT [R1441C, fluorescein-labeled non-phosphorylated LRRK2 Roc domain peptide with mutation R1441C]
[1]
  Binding to the human 14-3-3 isoforms, in words: did not bind any of the 14-3-3 isoforms
Human 14-3-3γ
  Binding to 14-3-3γ, in words: did not bind; also recorded: no binding

## LFNIKACASpSSPVILVGT [R1441C/pS1444, fluorescein-labeled LRRK2 Roc domain peptide with R1441C and pS1444]
[1]
  Binding to the human 14-3-3 isoforms, in words: affinities in the micromolar range
[1]; FP, R1441C/pS1444 compared with pS1444
  Factor by which the mutation R1441C decreases the affinity to all 14-3-3 isoforms: ≥ 30
Human 14-3-3γ
  Binding to 14-3-3γ, in words: micromolar affinities; also recorded: strongly decreased the nanomolar affinity of pS1444 alone

## LFNIKARASSSPVILVGT [S1443/S1444, fluorescein-labeled non-phosphorylated LRRK2 Roc domain peptide covering S1443 and S1444]
[1]
  Binding to the human 14-3-3 isoforms, in words: no detectable binding

## LFNIKARApSSSPVILVGT [pS1443, fluorescein-labeled LRRK2 Roc domain phosphopeptide, pS1443]
[1]
  Binding to the human 14-3-3 isoforms, in words: no detectable binding; also recorded: not demonstrated for any isoform
Human 14-3-3γ
  Binding to 14-3-3γ, in words: did not allow for binding

## RCSPNLQRHpSNSLGPIFDH [pS933, fluorescein-labeled LRRK2-derived phosphopeptide covering pS933]
[1]
  Binding to the human 14-3-3 isoforms, in words: no 14-3-3 binding was detectable
Human 14-3-3γ
  Binding to 14-3-3γ, in words: neither the Q930R mutation nor the additional phosphorylation in pS933 could induce binding

## RCSPNLRRHSNSLGPIFDH [Q930R, fluorescein-labeled non-phosphorylated LRRK2-derived peptide with mutation Q930R]
Human 14-3-3γ
  Binding to 14-3-3γ, in words: neither the Q930R mutation nor the additional phosphorylation in pS933 could induce binding

## RCSPNLRRHpSNSLGPIFDH [Q930R/pS933, fluorescein-labeled LRRK2-derived peptide with mutation Q930R and pS933]
[1]
  Binding to the human 14-3-3 isoforms, in words: no 14-3-3 binding was detectable

## SPNLQRHSNpSLGPIF [pS935, fluorescein-labeled LRRK2-derived phosphopeptide covering pS935]
[1]
  Binding to the human 14-3-3 isoforms, in words: no binding could be detected; also recorded: could not detect binding; also recorded: non-binding
Human 14-3-3γ
  Binding to 14-3-3γ, in words: did not bind; also recorded: no binding was detected

B1: human 14-3-3 isoform β (recombinant, MBP tag removed) (natural protein, UniProt P31946 1-246, looked up)
chain: MTMDKSELVQKAKLAEQAERYDDMAAAMKAVTEQGHELSNEERNLLSVAYKNVVGARRSSWRVISSIEQKTERNEKKQQMGKEYREKIEAELQDICNDVLELLDKYLIPNATQPESKVFYLKMKGDYFRYLSEVASGDNKQTTVSNSQQAYQEAFEISKKEMQPTHPIRLGLALNFSVFYYEILNSPEKACSLAKTAFDEAIAELDTLNEESYKDSTLIMQLLRDNLTLWTSENQGDEGDAGEGEN
notes: 14-3-3 beta, human; Expressed from pMAL2CX plasmids; also called 14-3-3β; source: E. coli BL21DE3, purified (maltose-agarose, Factor Xa, anion exchange)
R1441C/pS1444
  fold decrease in affinity against pS1444: ≥ 30 fold
pS1444
  Kd: 183 nM

B2: human 14-3-3 isoform ε (recombinant, MBP tag removed) (natural protein, UniProt P62258 1-255, looked up)
chain: MDDREDLVYQAKLAEQAERYDEMVESMKKVAGMDVELTVEERNLLSVAYKNVIGARRASWRIISSIEQKEENKGGEDKLKMIREYRQMVETELKLICCDILDVLDKHLIPAANTGESKVFYYKMKGDYHRYLAEFATGNDRKEAAENSLVAYKAASDIAMTELPPTHPIRLGLALNFSVFYYEILNSPDRACRLAKAAFDDAIAELDTLSEESYKDSTLIMQLLRDNLTLWTSDMQGDGEEQNKEALQDVEDENQ
notes: 14-3-3 epsilon, human; Expressed from pMAL2CX plasmids; also called 14-3-3ε; source: E. coli BL21DE3, purified (maltose-agarose, Factor Xa, anion exchange)
R1441C/pS1444
  fold decrease in affinity against pS1444: ≥ 30 fold
pS1444
  Kd: > 1000 nM

B3: human 14-3-3 isoform ζ (recombinant, MBP tag removed) (natural protein, UniProt P63104 1-245, looked up)
chain: MDKNELVQKAKLAEQAERYDDMAACMKSVTEQGAELSNEERNLLSVAYKNVVGARRSSWRVVSSIEQKTEGAEKKQQMAREYREKIETELRDICNDVLSLLEKFLIPNASQAESKVFYLKMKGDYYRYLAEVAAGDDKKGIVDQSQQAYQEAFEISKKEMQPTHPIRLGLALNFSVFYYEILNSPEKACSLAKTAFDEAIAELDTLSEESYKDSTLIMQLLRDNLTLWTSDTQGDEAEAGEGGEN
notes: 14-3-3 zeta, human; Expressed from pMAL2CX plasmids; also called 14-3-3ζ; source: E. coli BL21DE3, purified (maltose-agarose, Factor Xa, anion exchange)
R1441C/pS1444
  fold decrease in affinity against pS1444: ≥ 30 fold
pS1444
  Kd: 476 nM

From publication PMC7155755, “Binding of the Human 14-3-3 Isoforms to Distinct Sites in the Leucine-Rich Repeat Kinase 2” (Frontiers in Neuroscience, 2020)
